The subject of test [1] is Staphylococcus aureus. In words: Antimicrobial activity against Staphylococcus aureus AB94004 by microdilution method. The class given is functional. (In general: Broth dilution looks for growth in wells or tubes with falling amounts of substance.)
A further test relates to Staphylococcus. In words: Antimicrobial activity against methicillin-resistant coagulase-negative Staphylococcus P1369 by microdilution method. Type of test: functional.
Another test relates to Bacillus thuringiensis. In words: Antimicrobial activity against Bacillus thuringiensis AB93066 by microdilution method. Type of test: functional.
The subject of test [2] is Staphylococcus aureus. In words: Antimicrobial activity against methicillin-resistant Staphylococcus aureus P1386 by microdilution method. The class given is functional.
Test [3] concerns Staphylococcus aureus. In words: Antimicrobial activity against methicillin-resistant Staphylococcus aureus P1386 at 200 ug/ml after 9 hrs by time-kill analysis. The class given is functional, organism-based.
The test system of another test is Micrococcus luteus. In words: Antimicrobial activity against Micrococcus luteus AB93113 by microdilution method. The class given is functional.
In a further test the test system is Pseudomonas aeruginosa. In words: Antimicrobial activity against Pseudomonas aeruginosa AB92037 by microdilution method. The class given is functional.
The subject of test [4] is Staphylococcus epidermidis. In words: Antimicrobial activity against penicillin-sensitive Staphylococcus epidermidis P1111 by microdilution method. The class given is functional.
The test system of the next test is Escherichia coli. In words: Antimicrobial activity against Escherichia coli AB94012 by microdilution method. Type of test: functional.
Test [5] concerns Staphylococcus epidermidis. In words: Antimicrobial activity against penicillin-resistant Staphylococcus epidermidis P1389 by microdilution method. The class given is functional.
The test system of a further test is Bacillus subtilis. In words: Antimicrobial activity against Bacillus subtilis AB91021 by microdilution method. The class given is functional.
For test [6], the system named is Staphylococcus aureus. In words: Antimicrobial activity against methicillin-resistant Staphylococcus aureus P1374 by microdilution method. Type of test: functional.
The test system of test [7] is Staphylococcus aureus. In words: Antimicrobial activity against methicillin-resistant Staphylococcus aureus P1386 at 500 ug/ml after 9 hrs by time-kill analysis. The class given is functional, organism-based.

The record followed here is ChEMBL document CHEMBL1649537, “Imcroporin, a new cationic antimicrobial peptide from the venom of the scorpion Isometrus maculates” (2009).

Molecules are shown by their SMILES. In brackets after ≈: the same amount, converted by molar mass. Activity calls are given as the source filed them. No cut-off for these calls is given here.

On to `CO/N=C(\C(=O)N[C@@H]1C(=O)N2C(C(=O)O)=C(COC(C)=O)CS[C@H]12)c1csc(N)n1` [CEFOTAXIME], for which the MIC (commonly the least concentration at which growth counts as inhibited) in the test on Staphylococcus aureus [1] turned out to be 3 µg/mL (≈ 6.59 µM); against Staphylococcus it was 100 µg/mL (≈ 220 µM); against Bacillus thuringiensis, 12.5 µg/mL (≈ 27.4 µM); against Staphylococcus aureus [2], 400 µg/mL (≈ 878 µM); with Micrococcus luteus, 3 µg/mL (≈ 6.59 µM); against Pseudomonas aeruginosa, 12.5 µg/mL (≈ 27.4 µM). The MIC was 8 µg/mL (≈ 17.6 µM) in [4]; 3 µg/mL (≈ 6.59 µM) with Escherichia coli; 12.5 µg/mL (≈ 27.4 µM) in test [5]; 50 µg/mL (≈ 110 µM) against Bacillus subtilis; 400 µg/mL (≈ 878 µM) against Staphylococcus aureus [6]. The outcome in the test with Staphylococcus aureus [3] was inactive.

As to `CC1(C)S[C@@H]2[C@H](NC(=O)Cc3ccccc3)C(=O)N2[C@H]1C(=O)O` [PENICILLIN G], the MIC against Staphylococcus aureus [1] turned out to be 6 µg/mL (≈ 17.9 µM); in the test on Staphylococcus, 2000 µg/mL (≈ 5980 µM); against Bacillus thuringiensis, 12.5 µg/mL (≈ 37.4 µM); with Staphylococcus aureus [2], 1000 µg/mL (≈ 2990 µM); against Micrococcus luteus, 25 µg/mL (≈ 74.8 µM); in test [4] it was 4 µg/mL (≈ 12 µM). Besides, the MIC in test [5] turned out to be 1000 µg/mL (≈ 2990 µM); against Bacillus subtilis, 50 µg/mL (≈ 150 µM); against Staphylococcus aureus [6], 1000 µg/mL (≈ 2990 µM). For the same compound, in the test on Staphylococcus aureus [7], the result was inactive.

Regarding `CN[C@H](CC(C)C)C(=O)N[C@H]1C(=O)N[C@@H](CC(N)=O)C(=O)N[C@H]2C(=O)N[C@H]3C(=O)N[C@H](C(=O)N[C@H](C(=O)O)c4cc(O)cc(O)c4-c4cc3ccc4O)[C@H](O)c3ccc(c(Cl)c3)Oc3cc2cc(c3O[C@@H]2O[C@H](CO)[C@@H](O)[C@H](O)[C@H]2O[C@H]2C[C@](C)(N)[C@H](O)[C@H](C)O2)Oc2ccc(cc2Cl)[C@H]1O` [VANCOMYCIN], the MIC in the test with Staphylococcus worked out at 4 µg/mL (≈ 2.76 µM); in the test with Bacillus thuringiensis, 3 µg/mL (≈ 2.07 µM); against Micrococcus luteus, 3 µg/mL (≈ 2.07 µM); against Bacillus subtilis, 3 µg/mL (≈ 2.07 µM).
